Results taken from ChEMBL document CHEMBL4396930, “Identification of new dual FABP4/5 inhibitors based on a naphthalene-1-sulfonamide FABP4 inhibitor” (Bioorg Med Chem, 2019).

How the values were obtained:
[1] = biological target: Fatty acid-binding protein, adipocyte (Homo sapiens, UniProt P15090); experiment: Displacement of 1,8-ANS from human recombinant full length N-terminal his-tagged FABP4 expressed in Escherichia coli BL21 (DE3) incubated for 3 mins by fluorescence based assay
[2] = biological target: Fatty acid-binding protein 5 (Homo sapiens, UniProt Q01469); experiment: Displacement of 1,8-ANS from human recombinant full length N-terminal his-tagged FABP5 expressed in Escherichia coli BL21 (DE3) incubated for 3 mins by fluorescence based assay
Chain of Fatty acid-binding protein 5 (Q01469 whole entry): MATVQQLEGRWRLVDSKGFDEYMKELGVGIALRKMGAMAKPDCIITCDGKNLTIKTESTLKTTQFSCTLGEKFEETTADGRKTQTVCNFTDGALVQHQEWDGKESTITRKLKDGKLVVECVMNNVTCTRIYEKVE

RAW264.7 [3] = experiment: Cytotoxicity against mouse RAW264.7 cells assessed as reduction in cell viability at 30 to 60 uM incubated for 24 hrs by MTT assay; type: cell-based; conditions: raw264.7, 24 h
[4] = biological target: Fatty acid-binding protein, heart (Homo sapiens, UniProt P05413); experiment: Displacement of 1,8-ANS from FABP3 (unknown origin) incubated for 3 mins by fluorescence based assay
Chain of Fatty acid-binding protein, heart (P05413 whole entry): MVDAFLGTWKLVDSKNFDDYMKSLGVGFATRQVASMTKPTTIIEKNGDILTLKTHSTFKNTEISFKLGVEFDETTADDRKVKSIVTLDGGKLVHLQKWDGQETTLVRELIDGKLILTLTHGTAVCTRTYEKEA

3T3-L1 = experiment: Cytotoxicity against mouse 3T3L1 cells assessed as reduction in cell viability at 30 to 60 uM incubated for 24 hrs by MTT assay; type: cell-based; conditions: 3t3-l1, 24 h
RAW264.7 [5] = experiment: Antiinflammatory activity against mouse RAW264.7 cells assessed as inhibition of LPS-induced MCP-1 gene expression level at 30 uM preincubated for 12 hrs followed by LPS addition and measured after 6 hrs by qRT PCR analysis relative to control; type: functional
RAW264.7 [6] = experiment: Antiinflammatory activity against mouse RAW264.7 cells assessed as inhibition of LPS-induced TNFalpha gene expression level at 30 uM preincubated for 12 hrs followed by LPS addition and measured after 6 hrs by qRT PCR analysis relative to control; type: functional

Chain of Fatty acid-binding protein, adipocyte (P15090 whole entry): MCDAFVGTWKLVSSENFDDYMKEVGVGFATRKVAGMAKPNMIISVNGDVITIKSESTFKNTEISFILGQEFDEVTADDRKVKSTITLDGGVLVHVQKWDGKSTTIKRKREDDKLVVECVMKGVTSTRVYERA

IC50 [1] [µM] | IC50 [2] [µM] | Structure (SMILES) | other results
3.59 | 3.63 | O=C(O)c1cc(NS(=O)(=O)c2ccc(OCCCC3CCCCC3)c3ccccc23)ccc1F | –
2.3 | 2.76 | CCCCCCCOc1ccc(S(=O)(=O)Nc2ccc(F)c(C(=O)O)c2)c2ccccc12 | –
1.19 | – | COc1c(-c2ccccc2)cc(S(=O)(=O)Nc2ccc(F)c(C(=O)O)c2)c2ccccc12 | –
3.54 | – | COc1c(-c2ccncc2)cc(S(=O)(=O)Nc2ccc(F)c(C(=O)O)c2)c2ccccc12 | –
1.89 | – | COc1c(-c2cccc(O)c2)cc(S(=O)(=O)Nc2ccc(F)c(C(=O)O)c2)c2ccccc12 | –
4.73 | 4.48 | CCCCCCCCCCOc1ccc(S(=O)(=O)Nc2ccc(F)c(C(=O)O)c2)c2ccccc12 | –
14.8 | 4.61 | O=C(O)c1cc(NS(=O)(=O)c2ccc(OCC34CC5CC(CC(C5)C3)C4)c3ccccc23)ccc1F | –
2.37 | 3.3 | O=C(O)c1cc(NS(=O)(=O)c2ccc(OC3CCCCCC3)c3ccccc23)ccc1F | –
24.8 | – | CCCCCCCCCCCCOc1ccc(S(=O)(=O)Nc2ccc(F)c(C(=O)O)c2)c2ccccc12 | –
2.98 | – | COc1c(-c2ccc(F)c(F)c2)cc(S(=O)(=O)Nc2ccc(F)c(C(=O)O)c2)c2ccccc12 | –
1.19 | – | COc1c(-c2ccc(O)cc2)cc(S(=O)(=O)Nc2ccc(F)c(C(=O)O)c2)c2ccccc12 | –
1.97 | 4.85 | O=C(O)c1cc(NS(=O)(=O)c2ccc(OCCC3CCCCC3)c3ccccc23)ccc1F | Activity (RAW264.7 [3]): Non-Toxic; IC50 [4]: 55.6 µM; Activity (3T3-L1): Non-Toxic; inhibition at 30 µM (RAW264.7 [5]): 29%; inhibition at 30 µM (RAW264.7 [6]): 24%
– | – | COc1ccc(S(=O)(=O)Nc2ccc(F)c(C(=O)O)c2)c2ccccc12 | Activity (RAW264.7 [3]): Non-Toxic; Activity (3T3-L1): Non-Toxic
2.43 | 4.17 | CCCCCCOc1ccc(S(=O)(=O)Nc2ccc(F)c(C(=O)O)c2)c2ccccc12 | –
1.7 | – | COc1c(-c2cccc(N)c2)cc(S(=O)(=O)Nc2ccc(F)c(C(=O)O)c2)c2ccccc12 | –
1.74 | 10 | COc1c(-c2ccc(F)cc2)cc(S(=O)(=O)Nc2ccc(F)c(C(=O)O)c2)c2ccccc12 | –
2.99 | 8.32 | CCCCCOc1ccc(S(=O)(=O)Nc2ccc(F)c(C(=O)O)c2)c2ccccc12 | –
– | – | Cc1c(Cl)cccc1OCc1cc(=O)n2nc(-c3ccccc3)nc2[nH]1 | Activity (RAW264.7 [3]): Toxic; Activity (3T3-L1): Toxic
3.15 | – | O=C(O)c1cc(NS(=O)(=O)c2ccc(OCc3ccccc3)c3ccccc23)ccc1F | –
2.64 | – | CCOc1ccc(S(=O)(=O)Nc2ccc(F)c(C(=O)O)c2)c2ccccc12 | –
1.58 | – | COc1c(-c2ccc(F)c(Cl)c2)cc(S(=O)(=O)Nc2ccc(F)c(C(=O)O)c2)c2ccccc12 | Activity (RAW264.7 [3]): Non-Toxic; IC50 [4]: 46.8 µM; Activity (3T3-L1): Non-Toxic; inhibition at 30 µM (RAW264.7 [5]): 32%; inhibition at 30 µM (RAW264.7 [6]): 23%
4.04 | 4.19 | CCCCCCCCOc1ccc(S(=O)(=O)Nc2ccc(F)c(C(=O)O)c2)c2ccccc12 | –
4.38 | – | COc1c(-c2ccc(Cl)c(Cl)c2)cc(S(=O)(=O)Nc2ccc(F)c(C(=O)O)c2)c2ccccc12 | –
2.41 | 8.12 | O=C(O)c1cc(NS(=O)(=O)c2ccc(OCC3CCCCC3)c3ccccc23)ccc1F | –
2.2 | 7.66 | O=C(O)c1cc(NS(=O)(=O)c2ccc(OC3CCCCC3)c3ccccc23)ccc1F | –
3.53 | – | COc1c(-c2ccoc2)cc(S(=O)(=O)Nc2ccc(F)c(C(=O)O)c2)c2ccccc12 | –
